{
  "source": "patent US12098352B2",
  "about": "“Stem cell-based lung-on-chip models” (EMULATE, INC., priority 2018, dated 2024)",
  "key": {"[1]": {"test_system": "ICAM1", "experiment": "ICAM1 immunostaining of endothelial cells (HMECs) lining the vascular surface of the Chip", "type": "cell-based, human", "protocol": "FIG. 22A Effect of LPS on Vascular Expression of ICAM1. […] Representative images (20×) of endothelial cells (HMECs) lining the vascular surface of the Chip fixed and stained for ICAM1 (red) at 24 h post LPS treatment of the alveolar epithelial compartment. Nuclei are colored blue. […] IL-6, il-8 and MCP-1 have 40-90 fold increases in relation to untreated controls. FIG. 22C Detection of exemplary Lung-Specific Cytokines and Chemokines, IL-6; IL-8; MCP-1 and RANTES, in response to LPS stimulation. Co-cultures of Epithelium/Fibroblasts/Vasculature induced higher levels of cytokines than co-cultures of Epithelium/Vasculature; Fibroblasts/Vasculature or Vasculature alone.\nInterconnectivity refers to the observation that adding a compound to the epithelial side may induce a cytokine mediated response in the endothelial side. […] In other words, inflamed epithelial cells modulate function of the endothelial cells.\nOpen-Top Organ-Chips were fixed in 10% neutral buffered formalin. Endothelial cells were stained inside the chip by performinutesg the immunofluorescence steps described below directly inside the microfluidic channel. Stroma equivalents were stained as described by the step below inside the chip or alternatively extracted from the chip and processed for immunohistochemistry analysis. […]"}, "[2]": {"test_system": "epithelium-endothelium co-culture perfused with human whole blood", "conditions": "LPS treatment of the alveolar lumen of epithelium-endothelium co-culture; cited from earlier work"}},
  "note": "“Also recorded” adds a separate entry of the source.",
  "data": [
    {"substance": "Lipopolysaccharide [LPS]", "values": [
      {"measurement": "ICAM expression, endothelial cells exposed directly", "setting": "[1]; LPS directly on endothelial cells, no epithelium", "value": "does not induce expression of ICAM"},
      {"measurement": "vascular expression of ICAM1", "setting": "[1]; LPS on the alveolar epithelial compartment, 24 h", "value": "induced vascular expression of ICAM1; also recorded: induces expression of ICAM on endothelial cells; also recorded: induces ICAM1 expression only in presence of epithelial cells"},
      {"measurement": "thrombotic events", "setting": "[2]", "value": "triggered thrombotic events"}
    ]}
  ]
}
